# From ChEMBL document CHEMBL5725682, “Therapeutic inhibitory compounds” (2018)
# Columns and labels:
# Plasma kallikrein = Plasma kallikrein (Homo sapiens, UniProt P03952); experiment: In Vitro Enzyme Inhibition of hPK: A 10 mM solution of the test compound was made in DMSO. […] A control tube containing only DMSO is included. […] 50 μL was removed from this mixture and placed into duplicate wells on a Microfluor 1Black U-bottom microtiter plate (Thermo Scientific). This plate was incubated for 5 minutes at 37° C. To each well, 50 μL of pre-warmed 2×PFR-AMC was added to start the enzymatic reaction. Cleavage of PFR-AMC was monitored in a Biotek Synergy H4 reader set at 37° C. Readings are taken every 43 seconds for 1 hour. […] The IC50 is calculated using the Gen5 (Biotek Instruments).
# Chain of Plasma kallikrein (P03952 20-390 limits assumed): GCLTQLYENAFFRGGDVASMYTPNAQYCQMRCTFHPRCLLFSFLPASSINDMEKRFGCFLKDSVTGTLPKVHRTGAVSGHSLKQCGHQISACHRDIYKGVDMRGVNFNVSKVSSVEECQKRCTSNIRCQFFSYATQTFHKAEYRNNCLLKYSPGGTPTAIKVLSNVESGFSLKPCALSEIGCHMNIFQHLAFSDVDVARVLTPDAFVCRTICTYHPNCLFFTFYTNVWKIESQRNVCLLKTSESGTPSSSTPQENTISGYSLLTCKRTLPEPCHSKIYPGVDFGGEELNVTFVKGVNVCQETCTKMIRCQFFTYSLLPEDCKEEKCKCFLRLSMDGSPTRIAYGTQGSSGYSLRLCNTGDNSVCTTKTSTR
# Chain of Plasma kallikrein (P03952 391-638 limits assumed): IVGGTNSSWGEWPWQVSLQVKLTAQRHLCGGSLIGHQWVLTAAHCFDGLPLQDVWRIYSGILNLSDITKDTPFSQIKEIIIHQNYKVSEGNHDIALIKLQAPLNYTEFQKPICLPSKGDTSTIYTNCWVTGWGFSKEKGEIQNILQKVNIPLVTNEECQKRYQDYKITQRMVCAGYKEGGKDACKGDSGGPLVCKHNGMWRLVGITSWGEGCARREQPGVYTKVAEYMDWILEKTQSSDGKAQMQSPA
# [1] = In Vitro Contact Cellular Assay: The test compounds at various concentrations, also prepared by serial dilutions as described above, are added to the test wells. The volume of test compound added to each test well was 12.5 μL, to yield final concentrations of 20 μM, 5 μM, 1.25 μM, 312.5 nM, 78.125 nM, 19.531 nM, 4.883 nM, 1.221 nM, 0.305 nM, and 0.076 nM. Each test compound concentration was tested in duplicates.In addition to the inhibitor control and test wells, the 96 well assay plate includes positive control wells which contained the mixture of human plasma and ellagic acid without C1NH inhibitor or test compounds, and background wells which contained neither the mixture of human plasma and ellagic acid nor the test compounds. The total volume of liquid in positive control and background wells was brought up to 35 μL, using the assay buffer.The assay plate containing C1NH inhibitors and test compounds mixed with human plasma and ellagic acid and appropriate controls was incubated at 37° C. for 5 min. A 10 mM stock solution of substrate Z-FR-2-AMC was diluted to 133.2 μM in the assay buffer, and 15 μL of the diluted substrate was added to each well, to yield a final substrate concentration of 40 μM in each well. The reagents were mixed well by shaking the plate gently for 30 sec.The enzyme reaction was quantified by immediate kinetic reading of the assay plate using excitation/emission wavelengths of 330 nm/440 nm respectively. Fluorescence intensity was recorded for 60 min, using a time interval of 43 sec.The inhibition activity of the test compounds were evaluated using the EC50 values, calculated according to the dose-response curve of the test compounds, fitted using the log(inhibitor)−response (variable slope)¿ equation in GraphPadPrism software (GraphPad Software, Inc.).
SMILES,IC50 (Plasma kallikrein),EC50 [1]
Cc1nc(N)ccc1CNC(=O)c1ccnc(Cc2ccc3ncc(C4CC4)cc3c2)c1,< 100 nM,< 100 nM
Cc1nc2c(cc1CNC(=O)c1ccnc(Cc3ccc4ncc(Cl)cc4c3)c1)CNC2,> 10000 nM,
Cc1cc(C(=O)NCc2c(C)cc(N)nc2C)cc(Cc2ccc3ncc(Cl)cc3c2)n1,,< 100 nM
Cc1cc(N)nc(C)c1CNC(=O)c1cc(Cc2ccc3ncc(Cl)cc3c2)nc(C(N)=O)c1,,in the range around 550 nM
Cc1cc(N)nc(C)c1CNC(=O)c1ccnc(Cc2cccc(-c3noc(=O)[nH]3)c2)c1,> 10000 nM,
Nc1nccc2cc(CNC(=O)c3ccnc(Cc4ccc5ncc(N6CCCC6)cc5c4)c3)ccc12,< 100 nM,
Cc1cc(N)nc(C)c1CNC(=O)c1ccnc(Cc2ccc3ncc(CC(F)F)cc3c2)c1,< 100 nM,< 100 nM
Nc1nccc2cc(CNC(=O)c3ccnc(Cc4ccc5ncc(Cl)cc5c4)c3)ccc12,,< 100 nM
